Experimental data as given in PubChem BioAssay AID1259407 (Chemical Carcinogenesis Research Information System (CCRIS), 2018).
Activity calls are given as the source filed them. No rule for the calls is given here.

Tested on: CCRIS mutagenicity, Ames/micronucleus/aberration tests
Assay: CCRIS mutagenicity studies

c1ccccc1
mutagenic call (Test System: AMES SALMONELLA TYPHIMURIUM, Strain/Indicator: TA100, Metabolic Activation: RAT, LIVER, S-9, PHENOBARBITAL, Method: PREINCUBATION): inactive; negative | mutagenic call (Test System: AMES SALMONELLA TYPHIMURIUM, Strain/Indicator: TA100, Metabolic Activation: RAT, LIVER, S-9, PHENOBARBITAL, Method: STANDARD PLATE): inactive; negative | mutagenic call (Test System: AMES SALMONELLA TYPHIMURIUM, Strain/Indicator: TA100, Metabolic Activation: RAT, LIVER, S-9, PYRAZOLE, Method: STANDARD PLATE): inactive; negative | mutagenic call (Test System: AMES SALMONELLA TYPHIMURIUM, Strain/Indicator: TA100, Metabolic Activation: S-9, Method: STANDARD PLATE): inactive; negative | mutagenic call (Test System: AMES SALMONELLA TYPHIMURIUM, Strain/Indicator: TA102, Metabolic Activation: NONE, Method: STANDARD PLATE): inactive; negative | mutagenic call (Test System: AMES SALMONELLA TYPHIMURIUM, Strain/Indicator: TA102, Metabolic Activation: RAT, LIVER, S-9, ETHANOL, Method: STANDARD PLATE): inactive; negative | mutagenic call (Test System: AMES SALMONELLA TYPHIMURIUM, Strain/Indicator: TA102, Metabolic Activation: RAT, LIVER, S-9, PYRAZOLE, Method: STANDARD PLATE): inactive; negative | mutagenic call (Test System: AMES SALMONELLA TYPHIMURIUM, Strain/Indicator: TA102, Metabolic Activation: S-9, Method: STANDARD PLATE): inactive; negative | mutagenic call (Test System: AMES SALMONELLA TYPHIMURIUM, Strain/Indicator: TA104, Metabolic Activation: RAT, LIVER, S-9, AROCLOR 1254, Method: DESICCATOR): inactive; negative | mutagenic call (Test System: AMES SALMONELLA TYPHIMURIUM, Strain/Indicator: TA1535, Metabolic Activation: HAMSTER LIVER S-9, AROCLOR 1254 (10 OR 30%), Method: PREINCUBATION): inactive; negative | mutagenic call (Test System: AMES SALMONELLA TYPHIMURIUM, Strain/Indicator: TA1535, Metabolic Activation: NONE, Method: DESICCATOR): inactive; negative | mutagenic call (Test System: AMES SALMONELLA TYPHIMURIUM, Strain/Indicator: TA1535, Metabolic Activation: NONE, Method: PREINCUBATION): inactive; negative | mutagenic call (Test System: AMES SALMONELLA TYPHIMURIUM, Strain/Indicator: TA1535, Metabolic Activation: NONE, Method: STANDARD PLATE): inactive; negative | mutagenic call (Test System: AMES SALMONELLA TYPHIMURIUM, Strain/Indicator: TA1535, Metabolic Activation: RAT LIVER S-9, AROCLOR 1254 (10 OR 30%), Method: PREINCUBATION): inactive; negative | mutagenic call (Test System: AMES SALMONELLA TYPHIMURIUM, Strain/Indicator: TA1535, Metabolic Activation: RAT, LIVER, S-9, AROCLOR 1254, Method: DESICCATOR): active; positive | mutagenic call (Test System: AMES SALMONELLA TYPHIMURIUM, Strain/Indicator: TA1535, Metabolic Activation: RAT, LIVER, S-9, AROCLOR 1254, Method: STANDARD PLATE): inactive; negative | mutagenic call (Test System: AMES SALMONELLA TYPHIMURIUM, Strain/Indicator: TA1535, Metabolic Activation: RAT, LIVER, S-9, PYRAZOLE, Method: STANDARD PLATE): inactive; negative | mutagenic call (Test System: AMES SALMONELLA TYPHIMURIUM, Strain/Indicator: TA1537, Metabolic Activation: NONE, Method: STANDARD PLATE): inactive; negative | mutagenic call (Test System: AMES SALMONELLA TYPHIMURIUM, Strain/Indicator: TA1537, Metabolic Activation: RAT, LIVER, S-9, AROCLOR 1254, Method: STANDARD PLATE): inactive; negative | mutagenic call (Test System: AMES SALMONELLA TYPHIMURIUM, Strain/Indicator: TA1537, Metabolic Activation: RAT, LIVER, S-9, PYRAZOLE, Method: STANDARD PLATE): inactive; negative | mutagenic call (Test System: AMES SALMONELLA TYPHIMURIUM, Strain/Indicator: TA1538, Metabolic Activation: NONE, Method: STANDARD PLATE): inactive; negative | mutagenic call (Test System: AMES SALMONELLA TYPHIMURIUM, Strain/Indicator: TA1538, Metabolic Activation: RAT, LIVER, S-9, AROCLOR 1254, Method: STANDARD PLATE): inactive; negative | mutagenic call (Test System: AMES SALMONELLA TYPHIMURIUM, Strain/Indicator: TM677/8-AZAGUANINE, Metabolic Activation: NONE, Method: PREINCUBATION): inactive; negative | mutagenic call (Test System: AMES SALMONELLA TYPHIMURIUM, Strain/Indicator: TM677/8-AZAGUANINE, Metabolic Activation: RAT, LIVER, S-9, PHENOBARBITAL, Method: PREINCUBATION): inactive; negative | mutagenic call (Test System: AMES SALMONELLA TYPHIMURIUM, Strain/Indicator: TM677, Metabolic Activation: NONE, Method: STANDARD PLATE): inactive; negative | mutagenic call (Test System: AMES SALMONELLA TYPHIMURIUM, Strain/Indicator: UTH8413, Metabolic Activation: NONE, Method: STANDARD PLATE): inactive; negative | mutagenic call (Test System: AMES SALMONELLA TYPHIMURIUM, Strain/Indicator: UTH8413, Metabolic Activation: RAT, LIVER, S-9, AROCLOR, Method: STANDARD PLATE): inactive; negative | mutagenic call (Test System: AMES SALMONELLA TYPHIMURIUM, Strain/Indicator: UTH8414, Metabolic Activation: NONE, Method: STANDARD PLATE): inactive; negative | mutagenic call (Test System: AMES SALMONELLA TYPHIMURIUM, Strain/Indicator: UTH8414, Metabolic Activation: RAT, LIVER, S-9, AROCLOR, Method: STANDARD PLATE): inactive; negative | mutagenic call (Test System: CHINESE HAMSTER OVARY, Strain/Indicator: CHO-K1-BH4 (HGPRT), Metabolic Activation: NONE, Method: SUSPENSION/PLATE): inactive; negative | mutagenic call (Test System: CHINESE HAMSTER OVARY, Strain/Indicator: CHO-K1-BH4 (HGPRT), Metabolic Activation: RAT, LIVER, S-9, AROCLOR, Method: SUSPENSION/PLATE): inactive; negative | mutagenic call (Test System: CHINESE HAMSTER OVARY, Strain/Indicator: CHO/6-THIOGUANINE, Metabolic Activation: HAMSTER EMBRYO CELL-MEDIATED): inactive; negative | mutagenic call (Test System: CHINESE HAMSTER OVARY, Strain/Indicator: CHO/6-THIOGUANINE, Metabolic Activation: NONE): inactive; negative | mutagenic call (Test System: CHINESE HAMSTER OVARY, Strain/Indicator: CHO/OUABAIN, Metabolic Activation: HAMSTER EMBRYO CELL-MEDIATED): inactive; negative | mutagenic call (Test System: CHINESE HAMSTER OVARY, Strain/Indicator: CHO/OUABAIN, Metabolic Activation: NONE): inactive; negative | mutagenic call (Test System: CHINESE HAMSTER V-79, Strain/Indicator: V-79 (HGPRT)/6-THIOGUANINE, Metabolic Activation: NONE): inactive; negative | mutagenic call (Test System: CHINESE HAMSTER V-79, Strain/Indicator: V-79 (HGPRT)/6-THIOGUANINE, Metabolic Activation: RAT, LIVER, S-9, PHENOBARBITAL AND BETA-NAPHTHOFLAVONE): inactive; negative | mutagenic call (Test System: CHINESE HAMSTER V-79, Strain/Indicator: V-79/6-THIOGUANINE, Metabolic Activation: RAT, LIVER, S-9, PHENOBARBITAL AND 5,6-BENZOFLAVONE, Method: REPLATING): inactive; negative | mutagenic call (Test System: MOUSE LYMPHOMA, Strain/Indicator: L5178Y (TK+/+)/OUABAIN, Metabolic Activation: RAT LIVER S-9, AROCLOR 1254, Method: SUSPENSION/PLATE): active; positive | mutagenic call (Test System: MOUSE LYMPHOMA, Strain/Indicator: L5178Y (TK+/TK-), Metabolic Activation: NONE, Method: MICROWELL): active; positive | mutagenic call (Test System: MOUSE LYMPHOMA, Strain/Indicator: L5178Y (TK+/TK-), Metabolic Activation: NONE, Method: SUSPENSION/PLATE): inactive; negative | mutagenic call (Test System: MOUSE LYMPHOMA, Strain/Indicator: L5178Y (TK+/TK-), Metabolic Activation: RAT, LIVER, S-9, AROCLOR 1254, Method: SUSPENSION/PLATE): active; positive | mutagenic call (Test System: MOUSE LYMPHOMA, Strain/Indicator: L5178Y (TK+/TK-), Metabolic Activation: RAT, LIVER, S-9, Method: SUSPENSION/PLATE): inactive; negative | mutagenic call (Test System: MOUSE LYMPHOMA, Strain/Indicator: L5178Y (TK+/TK-), Metabolic Activation: S-9, Method: MICROWELL): active; positive | mutagenic call (Test System: MOUSE LYMPHOMA, Strain/Indicator: L5178Y(TK+/-)/TRIFLUOROTHYMIDINE, Metabolic Activation: RAT LIVER s-9, AROCLOR 1254, Method: SUSPENSION/PLATE): active; positive | mutagenic call (Test System: UDS RAT HEPATOCYTES, Strain/Indicator: THY INCORP, Metabolic Activation: NONE, Method: LIQUID SCINTILLATION COUNTING): active; positive | mutagenic call (Test System: UDS SHE CELLS, Strain/Indicator: THY INCORP, Metabolic Activation: NONE, Method: LIQUID SCINTILLATION COUNTING): inactive; negative
